According to US20210145802A1, “THERAPY FOR OPHTHALMOLOGICAL CONDITIONS” (WREN THERAPEUTICS LIMITED, priority 2018, published 2021):

Tests used:
[1] = tested on: CL2355 (Aβ1-42Neur worms); assay: Automated motility assay, Aβ1-42Neur worms; type: in vivo, C. elegans; details: compared to untreated worms
Description: (§1) Briefly, Netoglitazone stocks (5 mM in 100% DMSO) were used at an appropriate concentration to seed 9-cm NGM plates. Plates were then placed in a laminar flow hood at room temperature (22° C.) for up to 4 hours to dry. C. elegans cultures were then transferred onto media seeded with compound as L4 stage or Day 3 for late treatments and incubated at 24° for the whole experiment. Experiments were carried out at different Netoglitazone concentrations ranging from 0.05 to 500 μM in 1% DMSO. As controls, plates seeded only with 1% DMSO were used.
(§2) All C. elegans populations were cultured at 20° C. and developmentally synchronized from a 4 h egg-lay. At 64-72 h post-egg-lay (time zero), individuals were transferred to FUDR plates, and body movements were assessed over the times indicated. At different ages, the animals were washed off the plates with M9 buffer and spread over an OP-50 unseeded 9 cm plate, after which their movements were recorded at 20 fps using a recently developed microscopic procedure (M. Perni et al., Massively parallel C. elegans tracking provides multi-dimensional fingerprints for phenotypic discovery. J. Neurosci. Methods. 306, 57-67 (2018)) for 1 min. Up to 600 animals were counted in each experiment in duplicate unless stated otherwise. […]

N2 healthy control worms = assay: Automated motility assay, healthy worms; type: in vivo, C. elegans; details: same concentration range; compared with effect in Aβ worms
Description: N2 C. elegans var. Bristol used as controls (also labelled “healthy”). Generation time is about 3 days. Brood size is about 350, wild type phenotype, sub-cultured in 1973 (S. Brenner, The genetics of Caenorhabditis elegans. Genetics. 77, 71-94 (1974)).
as §1, with “Experiments were carried out at different Netoglitazone concentrations ranging from 0.05 to 500 μM in 1% DMSO. As controls, plates seeded only with 1% DMSO were used.” left out
as §2

GMC101 (Aβ worms) [2] = assay: Survival rate of Aβ worms; type: in vivo, C. elegans; details: administered at D3; D5 of adulthood
Description: as §1

Aβ42 = molecular target: T1, Aβ42 (Homo sapiens, UniProt P05067); assay: Aβ42 aggregation kinetics in human CSF; type: biochemical; details: 66% CSF; 1.25 and 5-fold excess
T1 construct: […]; made in house; host or cells: E. coli BL21 Gold (DE3)
T1 sequence (P05067 671-713): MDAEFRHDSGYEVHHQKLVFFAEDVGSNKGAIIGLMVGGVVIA
Description: For the experiments of Aβ42 aggregation kinetics in human CSF, monomeric solutions of 3 μM Aβ42 were prepared similar to above with the only exception that the buffer was 20 mM Hepes, pH 8 supplemented with 1 mM CaCl2 at 150 mM NaCl. The obtained monomer was diluted with the […] in order to reach 66% final concentration of CSF, in which the effect of CSF is close to maximum. Aβ42 aggregation kinetics were performed in the absence and the presence of 1.25 and 5-fold excess of Netoglitazone.

GMC101 (Aβ worms) [3] = assay: NIAD-4 plaque staining in living Aβ worms; type: in vivo, C. elegans
Description: Plaques staining was carried out as previously described (J. Habchi et al. (2016); M. Perni et al., A natural product inhibits the initiation of α-synuclein aggregation & suppresses its toxicity. Proc. Natl. Acad. Sci. U.S.A. 114, E1009-E1017 (2017)). Briefly, live transgenic animals were incubated with NIAD-4 over a range of concentrations and times, with 1 μM NIAD-4 (0.1% DMSO in M9 buffer) for 4 hours at room temperature. After staining, animals were allowed to recover on NGM plates for about 24 hours to allow destaining via normal metabolism. Stained animals were mounted on 2% agarose pads containing 40 mM NaN3 as anaesthetic on glass microscope slides for imaging. Images were captured with a Zeiss Axio Observer D1 fluorescence microscope (Carl Zeiss Microscopy GmbH) with a 20× objective and a 49004 ET-CY3/TRITC filter (Chroma Technology Corp). Fluorescence intensity was calculated using ImageJ software (National Institutes of Health) and then normalized as the corrected total cell fluorescence. Only the head region was considered because of the high background signal in the guts. All experiments were carried out in triplicate, and the data from one representative experiment are shown. Statistical significance was determined using t tests.

## O=C1NC(=O)C(Cc2ccc3cc(OCc4ccccc4F)ccc3c2)S1 (stereo not drawn) [Netoglitazone]
[1]
  motility of Aβ1-42Neur worms: significantly improves the motility
N2 healthy control worms
  effect on mobility of healthy worms: negligible
GMC101 (Aβ worms) [2]
  survival rate after late administration: increase
Aβ42
  delay of Aβ42 aggregation kinetics in 66% human CSF: significantly delayed the aggregation kinetics
GMC101 (Aβ worms) [3]; 0.5 μM, treatment at L4, day 6 of adulthood
  plaques load (NIAD-4 fluorescence): significantly decrease the plaques load
GMC101 (Aβ worms) [3]; administered at D3 of adulthood, measured at D6
  plaques load after late administration: significant decrease of the plaques load
